Experimental data as given in patent US20220017483A1, “AMINOPYRIDINE COMPOUND, PREPARATION METHOD THEREFOR AND USE THEREOF” (SICHUAN-KELUN-BIOTECH BIOPHARMACEUTICAL CO., LTD, priority 2018, published 2022).
Like-named read-outs stand apart in the source and are kept apart here.

Legend:
[1] = target: T1, A2a receptor cell membrane (human origin) (Homo sapiens, UniProt P29274); test: Competitive inhibition constant (Ki) for adenosine A2a receptor, [3H]-CGS-21680 radioligand binding; details: for Ki(A1)/Ki(A2a): selectivity ratio A1 over A2a
T1 construct: purchased PerkinElmer RBHA2AM400UA
T1 sequence (P29274 whole entry): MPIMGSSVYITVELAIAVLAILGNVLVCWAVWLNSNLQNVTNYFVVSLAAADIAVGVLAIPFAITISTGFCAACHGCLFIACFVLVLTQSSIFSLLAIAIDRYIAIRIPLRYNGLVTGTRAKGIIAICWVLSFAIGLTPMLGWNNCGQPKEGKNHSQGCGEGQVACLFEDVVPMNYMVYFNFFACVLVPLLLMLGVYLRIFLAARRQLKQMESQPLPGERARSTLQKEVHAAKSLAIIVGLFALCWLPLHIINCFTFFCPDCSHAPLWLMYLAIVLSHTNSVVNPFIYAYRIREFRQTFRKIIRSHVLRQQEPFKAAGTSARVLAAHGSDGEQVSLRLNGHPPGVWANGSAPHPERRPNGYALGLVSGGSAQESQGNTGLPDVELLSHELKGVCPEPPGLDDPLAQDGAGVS
Method: A2a receptor cell membrane (human origin): PerkinElmer, RBHA2AM400UA
A2a test buffer: 50 mM Tris-HCl, 10 mM MgCl2, 1 mM EDTA, pH7.4
(§1) The A1 receptor cell membrane was diluted to 0.025 μg/μl with the A1 test buffer and the A2a receptor cell membrane was diluted to 0.05 μg/μl with the A2a test buffer to obtain an A1 receptor cell membrane dilution and an A2a receptor cell membrane dilution.
(§2) The tested compound and CGS15943 were gradiently diluted with DMSO. 1 μl test compound, high-value control (0.5% DMSO), low-value control (1000 nM CGS15943) were added to a 96-well plate, wherein each well was added with 100 μl A1 receptor cell membrane dilution (containing 2.5 μg cell membrane) to obtain an A1 detection plate. Through the same steps, 100 μl A2a receptor cell membrane dilution (containing 5.0 μg cell membrane) was added to each well of a 96-well plate to obtain an A2a detection plate.
The A1 and A2a detection plates were sealed with a tap, and incubated at room temperature for 1 h and 2 h, respectively.
(§3) Unifilter-96 GF/C filter plate was prepared. The Unifilter-96 GF/C filter plate was added with 50 μl 0.3% PEI in each well, and incubated at room temperature for no less than 0.5 h.
(§4) After the incubation, the reaction solutions in the A1 detection plate and the A2a detection plate were transferred to two Unifilter-96 GF/C filter plates. The filter plates were washed with the corresponding pre-cooled washing buffers, then oven dried. After sealing the bottom of the filter plates, 50 μl of Microscint 20 cocktail scintillation fluid was added. After sealing the top of the filter plates, the plates were read in the counter MicroBeta2 Reader.
(§5) Data analysis: The inhibition rate was calculated according to the following formula:
(§6) Inhibition rate %=100−(the signal value of the tested wells−the signal average of the low-value control)/(the signal average of the high-value control−the signal average of the low-value control)*100.
(§7) IC50 was fitted by EXCEL XLfit. The competitive inhibition constant (Ki) was calculated according to the formula: Ki=IC50/(1+the concentration of the isotope-labelled ligands/Kd); Kd is the dissociation constant of the isotope-labeled ligands.

[2] = Pharmacokinetics and brain tissue distribution in rats, intragastric administration (PO); format: in vivo, male SD rats; details: rat; for bioavailability / AUC(0-t): male, SD, plasma; for bioavailability: po, orally administered 5 mg/kg compared to intravenous 1 mg/kg; for AUC(0-t) / Plasma AUClast/Brain AUClast / AUClast (brain) / capability to penetrate the blood-brain barrier / exposure to brain tissue (in words): PO, 5 mg/kg; for AUC(0-t): read-out: AUClast (plasma); for AUClast (brain): brain tissue homogenate
Method: (§8) Experimental Example 2: Pharmacokinetics (PK) and Brain Tissue Distribution Study in Rats
(§9) The compounds of the present invention and control compound 2 were administered to male SD rats by intravenous injection (IV) and intragastric administration (PO) respectively to study the pharmacokinetic characteristics.
(§10) The compounds of the present invention and control compound 2
(§11) synthesized according to the prior art process) were administered by IV and PO. IV and PO dosages were 1 mg/kg and 5 mg/kg, respectively. The vehicle for the IV administration of the compounds of the present invention was a mixture of 5% DMSO:5% Solutol (polyethylene glycol-15 hydroxystearate):90% physiological saline; and the vehicle for the IV administration of control compound 2 was a mixture of 10% DMSO:10% Solutol (polyethylene glycol-15 hydroxystearate):80% physiological saline. The vehicle for the PO administration of the compounds was 0.5% MC (sodium methylcellulose). Blood was collected before IV administration (0 h), and at time points of 0.083, 0.25, 0.5, 1, 2, 4, 6, 8, 24 h or longer (for example, adding time points of 32 and 48 h) after IV administration; and blood was collected before PO administration (0 h), and at time points of 0.25, 0.5, 1, 2, 4, 6, 8, 24 h or longer (for example, adding time points of 32 and 48 h) after PO administration. EDTA.K2 was used for anticoagulation of the blood, and a plasma sample was obtained after centrifugation. Brain tissue homogenates were taken at 0.25, 0.5, 1, and 8 hours after PO administration (3 animals for each time point). The plasma samples and brain tissue homogenate samples were stored at −80° C. Plasma samples and brain tissue homogenates were subjected to analysis by LC-MS/MS, after protein precipitation. The pharmacokinetic parameters were calculated by using non-compartmental model with WinNonlin 6.3 software.

[3] = target: T2, A1 receptor cell membrane (human origin) (Homo sapiens, UniProt P30542); test: Competitive inhibition constant (Ki) for adenosine A1 receptor, [3H]-DPCPX radioligand binding; details: [3H]-DPCPX 1.0 nM
T2 construct: purchased PerkinElmer ES-010-M400UA
T2 sequence (P30542 1-326): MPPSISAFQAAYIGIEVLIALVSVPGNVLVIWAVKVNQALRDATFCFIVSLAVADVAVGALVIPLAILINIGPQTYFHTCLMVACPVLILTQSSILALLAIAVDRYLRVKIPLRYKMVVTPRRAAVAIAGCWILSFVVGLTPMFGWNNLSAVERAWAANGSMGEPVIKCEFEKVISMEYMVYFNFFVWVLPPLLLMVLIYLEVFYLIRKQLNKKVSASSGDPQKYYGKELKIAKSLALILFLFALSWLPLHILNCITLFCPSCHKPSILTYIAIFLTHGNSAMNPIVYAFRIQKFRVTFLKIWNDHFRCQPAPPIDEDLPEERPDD
Method: Experimental Example 1: Determination of the Competitive Inhibition Constant (Ki) for Adenosine A1 and A2a Receptors
[^3H]-DPCPX: PerkinElmer, NET974250UC
A1 receptor cell membrane (human origin): PerkinElmer, ES-010-M400UA
A1 test buffer: 25 mM HEPES, 5 mM MgCl2, 1 mM CaCl2, 100 mM NaCl, pH7.4
A1 washing buffer: 25 mM HEPES, 5 mM MgCl2, 1 mM CaCl2, 100 mM NaCl, pH7.4
as §1, §2
100 μl of radioisotope-labelled ligand [^3H]-DPCPX (diluted in A1 test buffer, working concentration 1.0 nM) was added to the A1 detection plate, and 100 μl of radioisotope-labelled ligand [^3H]-CGS-21680 (diluted in A2a test buffer, working concentration 6.0 nM) was added to the A2a detection plate. The A1 and A2a detection plates were sealed with a tap, and incubated at room temperature for 1 h and 2 h, respectively.
as §3, §4, §5, §6, §7

[4] = Pharmacokinetics in rats, intravenous injection (IV); format: in vivo; details: male, SD, rat, 1 mg/kg, plasma
Method: as §8, §9, §10, §11

[5] = human A2a receptor cell membrane, [3H]-CGS-21680 6.0 nM, read-out: Ki(A2a)

Structure (SMILES)	Ki [1, 5] [µM]	bioavailability [2] [%]	AUC(0-t) [2] [ng·h/mL]	Plasma AUClast/Brain AUClast [2]	AUClast (brain) [2]	AUC(0-t) [4] [ng·h/mL]	Cmax [4] [ng/mL]	Ki(A1)/Ki(A2a) [1]	Ki [3] [µM]	Ki [1] [µM]	capability to penetrate the blood-brain barrier / exposure to brain tissue (in words) [2]
CNC(=O)Cn1cc(-c2cc(-c3ccc4ncnc(C)c4c3)c(-c3ccc(F)cc3)nc2N)cn1 [Compound 19, 2-(4-(2-amino-6-(4-fluorophenyl)-5-(4-methylquinazolin-6-yl)-pyridin-3-yl)-1H-pyrazol-1-yl)-N-methylacetamide]	0.0099	95.2	18800	776/1	24.2 (h*ng/g,	3940	2960	51.8	0.513		
Cc1ncnc2ccc(-c3cc(-c4cnn(CCC(N)=O)c4)c(N)nc3-c3ccc(F)cc3)cc12 [Compound 20, 3-(4-(2-amino-6-(4-fluorophenyl)-5-(4-methylquinazolin-6-yl)-pyridin-3-yl)-1H-pyrazol-1-yl)propionamide]			1900		undetectable	2530	3330	68.8	0.963	0.014	only very low exposure to brain tissue

Continued, in another order:

Ki [1, 5] [µM]	bioavailability [2] [%]	AUC(0-t) [2] [ng·h/mL]	Plasma AUClast/Brain AUClast [2]	AUClast (brain) [2]	AUC(0-t) [4] [ng·h/mL]	Cmax [4] [ng/mL]	Structure (SMILES)	Ki(A1)/Ki(A2a) [1]	Ki [3] [µM]	Ki [1] [µM]	capability to penetrate the blood-brain barrier / exposure to brain tissue (in words) [2]
0.0034	73.9	24700	73/1	337 (h*ng/g,	6660	1250	Cc1ncnc2ccc(-c3cc(C(N)=O)c(N)nc3-c3ccc(F)cc3)cc12 [Compound 6, 2-amino-6-(4-fluorophenyl)-5-(4-methylquinazolin-6-yl)nicotinamide]	644.6	2.19		
0.0132	68.5	8010	331/1	24.2 (h*ng/g,	2340	1340	Cc1ncnc2ccc(-c3cc(-c4cnn(CC(C)(C)O)c4)c(N)nc3-c3ccc(F)cc3)cc12 [Compound 21, 1-(4-(2-amino-6-(4-fluorophenyl)-5-(4-methylquinazolin-6-yl)-pyridin-3-yl)-1H-pyrazol-1-yl)-2-methylpropan-2-ol]	108.0	1.42		
	46.5	1200		1013 (h*ng/g,	518	913	Cc1ncnc2ccc(-c3nnc(N)nc3-c3ccc(F)cc3)cc12 [Control compound 2, reference compound]				significantly stronger
